{"source": "patent US20070161547A1", "about": "“Modulation of survivin expression” (priority 2003, published 2007)", "key": {"survivin protein": {"system": "survivin protein", "assay": "IC50 of dsRNA for survivin protein, quantitative Western blot (\"W\")", "format": "cell-based, human", "details": "W (Western blot), HeLa cells", "procedure": "Western blot analysis (immunoblot analysis) is carried out using standard methods. Cells are harvested 16-20 hours after oligonucleotide treatment, washed once with PBS, suspended in Laemmli buffer (100 μl/well), boiled for 5 minutes and loaded on a 16% SDS-PAGE gel. Gels are run for 1.5 hours at 150 V, and transferred to membrane for western blotting. Appropriate primary antibody directed to survivin is used, with a radiolabelled or fluorescently labeled secondary antibody directed against the primary antibody species. Bands are visualized using a PHOSPHORIMAGER™ (Molecular Dynamics, Sunnyvale, Calif.).\n(§1) For western blot analysis, cells are plated in 10 cm tissue culture dishes (Falcon, #3003) at a density of 7.5×10^5 cells/dish. For RT-PCR analysis, 96-well plates (Corning Incorporated, #3596) are plated with 1×10^4 cells/well. Lipofectin (GIBCO/Invitrogen) transfection reagent is used at a concentration of 3 ul/ml OPTIMEM reduced serum medium (Gibco/Invitrogen)/100 nM siRNA duplex. Lipofectin reagent is incubated with OPTIMEM medium for 30 minutes prior to the addition of siRNA. The desired amount of siRNA is added and mixed. Further 1:1 dilutions are performed in OPTIMEM. Cells are washed twice with 1× phosphate buffered saline and then treated with the siRNA/Lipofectin mixture in OPTIMEM. After a 4 hr incubation period, OPTIMEM medium is replaced with complete growth medium. Cells are harvested after additional 16-20 hrs for Western blot or RT-PCR analysis.\nAt the end of the incubation period culture medium is removed and cells are washed twice with PBS. Cells are lysed in RIPA buffer (20 mM Tris-HCl, pH 7.4, 5 mM EDTA, 50 mM NaCl, 10 mM Sodium Pyrophosphate, 50 mM Sodium Fluoride, and 1% Nonidet P40) plus Complete™ Mini protease inhibitor tablets (Roche, #1836153) and 1 mM Sodium orthovanadate (Sigma) by directly adding buffer to the plate. Lysates are collected by scrapping, transferred to microfuge tubes and cleared from the cellular debris by centrifugation at 14,000 rpm for 30 minutes at 4° C. Protein concentrations are determined using BCA protein assay yeagents (Pierce). Total cellular protein is subjected to SDS-PAGE and transferred onto Immobilon-P membranes (Millipore, #IPVHO91). Membranes are probed with primary antibodies to survivin (R&D Systems, #AF886) and to β-Actin (Sigma, #A5441). Horseradish peroxidase linked Anti-rabbit Ig, and anti-mouse Ig, antibodies (Pharmacia) are used as secondary antibodies. Antigen-antibody complexes are visualized by incubation of membrane in SuperSigmal West Pico chemiluminescence reagents (Pierce) for 5 minutes followed by capturing of the chemiluminescence using Fluor-S imager (Biorad) equipped with the cool CCD camera. The protein bands of interest for each sample are quantified using Quantity One software (Biorad). The percentage inhibition for each samples are calculated by comparing the survivin/Actin protein ratio for the sample to survivin/Actin protein ratio for the untreated control. The IC50 is derived from the non-linear regression analysis of the percentage inhibition data using GraphPad Prism software (GraphPad Software).\nThe constructs tested comprise the antisense strand in the 5′-3′ orientation, and the sense strand in the 5′ to 3′ orientation, In Table 15, “D” is dose response (mRNA levels) and “W” is Western blot. All internucleoside linkages are phosphodiester unless otherwise noted by a lowercase “s” indicating a phosphorothioate linkage."}, "human survivin mRNA": {"system": "human survivin mRNA", "assay": "IC50 of dsRNA for survivin mRNA, dose response by quantitative RT-PCR (\"D\")", "format": "cell-based", "details": "D (dose response, mRNA levels), read-out: IC50", "procedure": "Representative parameters that can be studied include, for example, translation of survivin mRNAs or survivin protein synthesis; effect on surrogate markers; or any other parameter that is indicative of potential dsRNA therapeutic effectiveness that can be conveniently measured in vitro.\nas §1\nTotal RNA is isolated using RNeasy® 96 kit according to recommended protocol (Qiagen). Briefly, cells are washed with 200 ul PBS after removal of growth medium. Following washing, 100 μl buffer RLT is added, plate is shaken vigorously for about 20 seconds. To each well 100 μl 70% ethanol are added and mixed by pipetting up and down three times. Samples are then applied into the wells of the RNeasy 96 plate placed in the QIAvac top base of the QIAvac 96 manifold, which is attached to a vacuum source. Vacuum is applied for 30 seconds or until transfer is complete. To each well 80 μl of DNase I incubation mix (20 mM Tris-HCl, pH 8.4, 2 mM MgCl2, 50 mM KCl and 225 Units/ml DNase I from Invitrogen) is added and incubated at room temperature for 30 minutes. Buffer RW1 (1 ml/well) is added and the vacuum is applied for 30 seconds. Buffer RPE (1 ml/well) is added to each well and vacuum is applied for 30 seconds. Washing steps with buffer RW1 and RPE1 are repeated once more. The plate is then removed from the manifold and blotted dry on paper towels. The plate is placed back in the QIAvac manifold and the vacuum is applied for 10 minutes. To elute RNA 30 μl of RNase-free water is added directly onto the membrane of each well, incubated for 1 minutes and vacuum is applied for 30 seconds. In order to maximize the recovery of total RNA the elution step is repeated with additional 30 μl/well RNase-free water.\nQuantitation of survivin and GAPDH mRNA levels is determined by real-time quantitative RT-PCR using the ABI PRISM® 7900 Sequence Detection System (Applied Biosystems). RT-PCR reactions are carried out by adding 15 ul of TaqMan One Step PCR Master Mix (Applied Biosystems, #4309169) reagents (containing 100 nM each of forward primer and reverse primer, and 200 nM probe) to 96-well plates with 10 μl total RNA. For human survivin, the forward PCR primer is: 5′[…]3′ (SEQ ID NO: 186), and the reverse primer is: 5′[…]3′ (SEQ ID NO: 187). The survivin TaqMan® probe used is 5′(FAM)[…]3′ (SEQ ID NO: 188) (Biosearch Technologies, Inc.). This primer-probe set, designed to SEQ ID No 14 was used for all experiments in Examples 15 to the end. For human GAPDH, TaqMan GAPDH Control Reagent Kit is used (Applied Biosystems, #402869). The percentage inhibition for each samples are calculated by comparing the survivin/GAPDH mRNA ratio for the sample to survivin/GAPDH mRNA ratio for the untreated control. The IC50 is derived from the non-linear regression analysis of the percentage inhibition data using GraphPad Prism software (GraphPad Software).\nThe constructs tested comprise the antisense strand in the 5′-3′ orientation, and the sense strand in the 5′ to 3′ orientation, In Table 15, “D” is dose response (mRNA levels) and “W” is Western blot. […]"}}, "note": "Where two headings read alike, the source gives them in different places."}
{"substance": "339052_339082 (antisense GCAAAAGGGACACUGCCUUC; sense GAAGGCAGUGUCCCUUUUGC; siRNA; unmodified RNA)", "values": [{"measurement": "IC50", "setting": "survivin protein", "result": "≥ 100", "unit": "nM"}, {"measurement": "IC50", "setting": "human survivin mRNA; HeLa cells", "result": 2.41, "unit": "nM"}, {"measurement": "IC50", "setting": "human survivin mRNA; U-87 MG cells", "result": 1.15, "unit": "nM"}]}
{"substance": "339058_339088 (antisense AACAAAAUAAGAAAGCCAUG; sense CAUGGCUUUCUUAUUUUGUU; siRNA; unmodified RNA)", "values": [{"measurement": "IC50", "setting": "survivin protein", "result": 7.23, "unit": "nM"}, {"measurement": "IC50", "setting": "human survivin mRNA; HeLa cells", "result": 2.96, "unit": "nM"}]}
{"substance": "339045_339075 (antisense AUCCAUGGCAGCCAGCUGCU; sense AGCAGCUGGCUGCCAUGGAU; siRNA; unmodified RNA)", "values": [{"measurement": "IC50", "setting": "survivin protein", "result": 5.5, "unit": "nM"}, {"measurement": "IC50", "setting": "human survivin mRNA; HeLa cells", "result": 3.3, "unit": "nM"}, {"measurement": "IC50", "setting": "human survivin mRNA; U-87 MG cells", "result": 0.68, "unit": "nM"}]}
{"substance": "339056_339086 (antisense UAAGGAACCUGCAGCUCAGA; sense UCUGAGCUGCAGGUUCCUUA; siRNA; unmodified RNA)", "values": [{"measurement": "IC50", "setting": "survivin protein", "result": 7.5, "unit": "nM"}, {"measurement": "IC50", "setting": "human survivin mRNA; HeLa cells", "result": 1.72, "unit": "nM"}, {"measurement": "IC50", "setting": "human survivin mRNA; U-87 MG cells", "result": 0.51, "unit": "nM"}]}
{"substance": "339048_339078 (antisense AUUUGAAAAUGUUGAUCUCC; sense GGAGAUCAACAUUUUCAAAU; siRNA; unmodified RNA)", "values": [{"measurement": "IC50", "setting": "survivin protein", "result": 3.97, "unit": "nM"}, {"measurement": "IC50", "setting": "human survivin mRNA; U-87 MG cells", "result": 0.34, "unit": "nM"}]}
{"substance": "339060_339090 (antisense AGUUUGUGCUAUUCUGUGAA; sense UUCACAGAAUAGCACAAACU; siRNA; unmodified RNA)", "values": [{"measurement": "IC50", "setting": "survivin protein", "result": 4.43, "unit": "nM"}, {"measurement": "IC50", "setting": "human survivin mRNA; HeLa cells", "result": 3.38, "unit": "nM"}]}
